Consider 26 compounds from patent US9975878B2, “Substituted triazine BMI-1 inhibitors” (PTC Therapeutics, Inc., priority 2013, dated 2018).

Usually EC50 stands for the concentration giving half of the maximal effect.

Structures are written as SMILES.

The assay relates to Bmi-1 protein. Description: Sandwich ELISA Assay: Bmi-1 protein level in HT-1080 cells treated with test compounds. The assay is classed as cell-based. In a few lines: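 HT-1080 cells exposed to compounds (final DMSO 0.5%) for 40-48 h at 37° C, 5% CO2, then lysed. Bmi-1 quantified by sandwich ELISA (mouse anti-Bmi-1 capture, rabbit anti-Bmi-1 detection, HRP anti-rabbit, TMB), read at OD450 with OD570 reference, against recombinant GST-Bmi-1 standard curve (0-8000 pg/mL).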
In general terms: ELISA stands for enzyme-linked immunosorbent assay.
`CCc1nc2ccc(F)cc2n1-c1nc(N)nc(Nc2ccc(OC(F)F)c(F)c2)n1` [Cpd 57, N-[4-(difluoromethoxy)-3-fluorophenyl]-6-(2-ethyl-6-fluoro-1H-benzimidazol-1-yl)-1,3,5-triazine-2,4-diamine] displayed an EC50 of 10 to 100 nM.

As for `CCc1nc2ccccc2n1-c1cnnc(Nc2ccc(OC(F)F)cc2)n1` [Cpd 203, N-[4-(difluoromethoxy)phenyl]-5-(2-ethyl-1H-benzimidazol-1-yl)-1,2,4-triazin-3-amine], the EC50 is 10 to 100 nM. As to `CCc1nc2c(F)cccc2n1-c1nc(N)nc(Nc2ccc(Cl)cc2)n1` [Cpd 214, N-(4-chlorophenyl)-6-(2-ethyl-4-fluoro-1H-benzimidazol-1-yl)-1,3,5-triazine-2,4-diamine], the EC50 lay within 10 to 100 nM. In turn, `Cc1nc2cc(F)ccc2n1-c1nc(N)nc(Nc2ccc(OC(F)F)c(F)c2)n1` [Cpd 54, N-[4-(difluoromethoxy)-3-fluorophenyl]-6-(5-fluoro-2-methyl-1H-benzimidazol-1-yl)-1,3,5-triazine-2,4-diamine] gave an EC50 of 100 to 3000 nM. The same measure for `Cc1nc2ccccc2n1-c1nc(N)nc(Nc2ccc3ocnc3c2)n1` [Cpd 15, N-(1,3-benzoxazol-5-yl)-6-(2-methyl-1H-benzimidazol-1-yl)-1,3,5-triazine-2,4-diamine]: 100 to 3000 nM; for `COc1ccc(Nc2nc(N)nc(-n3c(C4CC4)nc4c(F)cccc43)n2)cc1` [Cpd 182, 6-(2-cyclopropyl-4-fluoro-1H-benzimidazol-1-yl)-N-(4-methoxyphenyl)-1,3,5-triazine-2,4-diamine]: 1 to 10 nM; for `Cc1nc2ncccc2n1-c1nc(N)nc(Nc2ccc(C(F)(F)F)cc2)n1` [Cpd 17, 6-(2-methyl-1H-imidazo[4,5-b]pyridin-1-yl)-N-[4-(trifluoromethyl)phenyl]-1,3,5-triazine-2,4-diamine]: 100 to 3000 nM. The result for `Cc1nc2ncc(Br)cc2n1-c1nc(N)nc(Nc2ccc(OC(F)F)cc2)n1` [Cpd 38, 6-(6-bromo-2-methyl-1H-imidazo[4,5-b]pyridin-1-yl)-N-[4-(difluoromethoxy)phenyl]-1,3,5-triazine-2,4-diamine] reads 10 to 100 nM; that for `CCc1nc2ccc(F)cc2n1-c1cnnc(Nc2ccc(C(F)(F)F)cc2)n1` [Cpd 125, 5-(2-ethyl-6-fluoro-1H-benzimidazol-1-yl)-N-[4-(trifluoromethyl)phenyl]-1,2,4-triazin-3-amine], 100 to 3000 nM; that for `COc1ccc(Nc2nc(N)nc(-c3c(C(F)(F)F)nc4ccccn34)n2)cc1F` [Cpd 1, N-(3-fluoro-4-methoxyphenyl)-6-[2-(trifluoromethyl)imidazo[1,2-a]pyridin-3-yl]-1,3,5-triazine-2,4-diamine], 1 to 10 nM.

`Nc1nc(Nc2ccc(C(F)(F)F)cc2)nc(-n2c(CO)nc3ccccc32)n1` [Cpd 118, [1-(4-amino-6-{[4-(trifluoromethyl)phenyl]amino}-1,3,5-triazin-2-yl)-1H-benzimidazol-2-yl]methanol] gave an EC50 of 100 to 3000 nM. As for `Cc1nc2cc(F)ccc2n1-c1nc(N)nc(Nc2ccc(C(F)(F)F)cc2)n1` [Cpd 27, 6-(5-fluoro-2-methyl-1H-benzimidazol-1-yl)-N-[4-(trifluoromethyl)phenyl]-1,3,5-triazine-2,4-diamine], the EC50 was in the range of 100 to 3000 nM. Compound `CCc1nc2cc(F)ccc2n1-c1nc(N)nc(Nc2ccc(Br)cc2)n1` [Cpd 221, N-(4-bromophenyl)-6-(2-ethyl-5-fluoro-1H-benzimidazol-1-yl)-1,3,5-triazine-2,4-diamine] came in with an EC50 of 10 to 100 nM.

On to `CCc1nc2ccccc2n1-c1nc(Nc2ccc(C(F)(F)F)cc2)c[n+]([O-])n1` [Cpd 139, 3-(2-ethyl-1H-benzimidazol-1-yl)-N-[4-(trifluoromethyl)phenyl]-1,2,4-triazin-5-amine 1-oxide], for which the EC50 was in the range of 10 to 100 nM. `CCc1nc2ccccc2n1-c1nc(N)nc(Nc2ccc(OC)cc2)n1` [Cpd 159, 6-(2-ethyl-1H-benzimidazol-1-yl)-N-(4-methoxyphenyl)-1,3,5-triazine-2,4-diamine] had an EC50 of 1 to 10 nM. In the case of `Nc1nc(Nc2ccc(OC(F)F)c(F)c2)nc(-n2c(C3CC3)nc3c(F)cccc32)n1` [Cpd 87, 6-(2-cyclopropyl-4-fluoro-1H-benzimidazol-1-yl)-N-[4-(difluoromethoxy)-3-fluorophenyl]-1,3,5-triazine-2,4-diamine], the EC50 was in the range of 10 to 100 nM. The compound `Nc1nc(Nc2ccc(C(F)(F)F)cc2)nc(-n2c(CF)nc3ccccc32)n1` [Cpd 107, 6-[2-(fluoromethyl)-1H-benzimidazol-1-yl]-N-[4-(trifluoromethyl)phenyl]-1,3,5-triazine-2,4-diamine] came in with an EC50 of 100 to 3000 nM. As for `Cc1nc2ccc(F)cc2n1-c1nc(N)nc(Nc2ccc(C(F)(F)F)nc2)n1` [Cpd 53, 6-(6-fluoro-2-methyl-1H-benzimidazol-1-yl)-N-[6-(trifluoromethyl)pyridin-3-yl]-1,3,5-triazine-2,4-diamine], the EC50 was 10 to 100 nM. `CCc1nc2cc(F)c(F)cc2n1-c1nc(N)nc(Nc2ccc(OC(F)F)cc2)n1` [Cpd 84, N-[4-(difluoromethoxy)phenyl]-6-(2-ethyl-5,6-difluoro-1H-benzimidazol-1-yl)-1,3,5-triazine-2,4-diamine]: the 50% effective concentration (EC50) was 10 to 100 nM. Turning to `CCc1nc2c(F)cccc2n1-c1nc(N)nc(Nc2ccc(C(F)(F)F)cc2)n1` [Cpd 68, 6-(2-ethyl-4-fluoro-1H-benzimidazol-1-yl)-N-[4-(trifluoromethyl)phenyl]-1,3,5-triazine-2,4-diamine], the EC50 is 10 to 100 nM. The same measure for `Cc1cccc(Nc2nc(N)nc(-n3c(C4CC4)nc4ccccc43)n2)c1` [Cpd 156, 6-(2-cyclopropyl-1H-benzimidazol-1-yl)-N-(3-methylphenyl)-1,3,5-triazine-2,4-diamine]: 100 to 3000 nM; for `Nc1nc(Nc2ccc(OC(F)(F)F)cc2)nc(-n2c(C3CC3)nc3ccccc32)n1` [Cpd 225, 6-(2-cyclopropyl-1H-benzimidazol-1-yl)-N-[4-(trifluoromethoxy)phenyl]-1,3,5-triazine-2,4-diamine]: 100 to 3000 nM. In the case of `Nc1nc(Nc2ccc(C(F)(F)F)cc2)nc(-n2c(C3CC3)nc3cc(F)ccc32)n1` [Cpd 65, 6-(2-cyclopropyl-5-fluoro-1H-benzimidazol-1-yl)-N-[4-(trifluoromethyl)phenyl]-1,3,5-triazine-2,4-diamine], the EC50 lay in the range of 100 to 3000 nM. For `Nc1nc(Nc2ccc(C(F)(F)F)cc2)nc(-n2c(C3CC3)nc3ncc(F)cc32)n1` [Cpd 36, 6-(2-cyclopropyl-6-fluoro-1H-imidazo[4,5-b]pyridin-1-yl)-N-[4-(trifluoromethyl)phenyl]-1,3,5-triazine-2,4-diamine], the concentration for a half-maximal effect (EC50) lay in the range of 100 to 3000 nM.

On to `Cc1nc2cc(F)c(F)cc2n1-c1nc(N)nc(Nc2ccc(OC(F)F)c(F)c2)n1` [Cpd 10, N-[4-(difluoromethoxy)-3-fluorophenyl]-6-(5,6-difluoro-2-methyl-1H-benzimidazol-1-yl)-1,3,5-triazine-2,4-diamine], for which the EC50 is 100 to 3000 nM.

As to `COc1ccc(Nc2nc(N)nc(-n3c(C)nc4c(F)cccc43)n2)cc1` [Cpd 179, 6-(4-fluoro-2-methyl-1H-benzimidazol-1-yl)-N-(4-methoxyphenyl)-1,3,5-triazine-2,4-diamine], the concentration giving a half-maximal response (EC50) fell in the range of 1 to 10 nM.
